The assay concerns the target T1, RNase L (Homo sapiens, UniProt Q05823).
T1 sequence (Q05823 1-741): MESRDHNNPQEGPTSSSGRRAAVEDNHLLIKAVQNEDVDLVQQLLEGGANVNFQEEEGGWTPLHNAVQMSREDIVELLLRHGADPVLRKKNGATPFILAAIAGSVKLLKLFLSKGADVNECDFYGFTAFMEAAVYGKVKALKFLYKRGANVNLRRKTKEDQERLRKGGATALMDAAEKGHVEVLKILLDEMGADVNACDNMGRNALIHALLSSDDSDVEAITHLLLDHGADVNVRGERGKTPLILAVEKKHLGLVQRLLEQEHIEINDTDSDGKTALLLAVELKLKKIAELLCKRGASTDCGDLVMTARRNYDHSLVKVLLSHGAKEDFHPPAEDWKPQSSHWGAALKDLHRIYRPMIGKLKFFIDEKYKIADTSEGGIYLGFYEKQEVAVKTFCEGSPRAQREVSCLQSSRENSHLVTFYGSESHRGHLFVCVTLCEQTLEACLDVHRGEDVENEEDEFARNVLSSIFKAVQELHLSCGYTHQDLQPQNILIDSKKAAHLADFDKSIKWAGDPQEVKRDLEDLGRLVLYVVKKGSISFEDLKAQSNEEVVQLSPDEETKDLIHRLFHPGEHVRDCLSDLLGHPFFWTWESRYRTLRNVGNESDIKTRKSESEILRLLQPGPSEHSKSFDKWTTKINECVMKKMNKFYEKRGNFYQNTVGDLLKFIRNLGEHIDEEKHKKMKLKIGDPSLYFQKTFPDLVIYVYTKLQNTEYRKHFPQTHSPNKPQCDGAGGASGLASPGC
The assay can be described thus: FRET RNA cleavage assay. The format is biochemical.

For orientation: IC50 means the concentration that inhibits the measured activity by half.

Molecules are shown by their SMILES.

Consider `COc1cc(/C=C/C(=O)CC(=O)/C=C/c2ccc(O)c(OC)c2)ccc1O` [curcumin], for which the concentration for half-maximal inhibition (IC50) was around 30 µM.

Values taken from article PMC6326797 (Nucleic Acids Research, 2018).
